Results reported in publication PMC10666275 (ACS Omega, 2023).
In brackets after ≈: the same amount, converted by molar mass. Entries after “also recorded” stand apart in the source; their conditions may differ.

Tests used:
P. aeruginosa [1] = assay: Agar diffusion method, inhibition zones, P. aeruginosa; format: cell-based, Pseudomonas aeruginosa; settings: 24 h; for zone of inhibition at 10000 µg/mL: Pseudomonas aeruginosa, read-out: IZ (inhibition zone); for IZ (inhibition zone): P. aeruginosa, agar well diffusion, 100 μL of 10 mg/mL in DMSO, 37 °C
[2] = biological target: T1, dihydrofolate reductase (DHFR) enzyme (Homo sapiens, UniProt P00374); assay: In vitro DHFR inhibition assay; format: biochemical
T1 sequence (P00374 1-187): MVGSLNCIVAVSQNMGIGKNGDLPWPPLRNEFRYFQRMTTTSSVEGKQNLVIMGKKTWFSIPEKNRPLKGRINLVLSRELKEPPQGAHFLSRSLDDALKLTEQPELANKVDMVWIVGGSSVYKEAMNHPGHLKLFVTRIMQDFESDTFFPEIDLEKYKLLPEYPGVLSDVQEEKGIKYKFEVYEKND

MRSA [3] = assay: Agar diffusion method, inhibition zones, MRSA; format: cell-based, methicillin-resistant Staphylococcus aureus; settings: Staphylococcus aureus, 24 h, read-out: IZ (inhibition zone)
MRSA [4] = assay: Resazurin-based 96-well plate microdilution MIC, MRSA; format: cell-based, methicillin-resistant Staphylococcus aureus; settings: Staphylococcus aureus, 24 h
P. aeruginosa [5] = assay: Resazurin-based 96-well plate microdilution MIC, P. aeruginosa; format: cell-based; settings: Pseudomonas aeruginosa, 24 h
MRSA-induced keratitis = MRSA-induced keratitis in rats; format: in vivo, rat (Sprague–Dawley)

COc1cc(C(=O)/C=C\c2cn(-c3ccccc3)nc2-c2ccccc2)cc(OC)c1OC [compound 4, (Z)-3-(1,3-Diphenyl-1H-pyrazol-4-yl)-1-(3,4,5-trimethoxyphenyl)prop-2-en-1-one]
zone of inhibition at 10000 µg/mL (P. aeruginosa [1]): 15 mm
IC50 [2]: 5 ± 0.23 µM
zone of inhibition at 10000 µg/mL (MRSA [3]): 17 mm

COc1cc(-c2cc(-c3cn(-c4ccccc4)nc3-c3ccccc3)[nH]c(=O)n2)cc(OC)c1OC [compound 5a, 6-(1,3-Diphenyl-1H-pyrazol-4-yl)-4-(3,4,5-trimethoxyphenyl)pyrimidine-2(1H)-one]
MIC (MRSA [4]): 2080 µM (≈ 1000 µg/mL)
zone of inhibition at 10000 µg/mL (P. aeruginosa [1]): 22 mm
IC50 [2]: 4.2 ± 0.2 µM
zone of inhibition at 10000 µg/mL (MRSA [3]): 25 mm
MIC (P. aeruginosa [5]): 8320 µM (≈ 4000 µg/mL)

COc1cc(-c2cc(-c3cn(-c4ccccc4)nc3-c3ccccc3)[nH]c(=S)n2)cc(OC)c1OC [compound 5b, 6-(1,3-Diphenyl-1H-pyrazol-4-yl)-4-(3,4,5-trimethoxyphenyl)pyrimidine-2(1H)-thione]
MIC (MRSA [4]): 1010 µM (≈ 500 µg/mL)
zone of inhibition at 10000 µg/mL (P. aeruginosa [1]): 20 mm
IC50 [2]: 4.1 ± 0.19 µM
zone of inhibition at 10000 µg/mL (MRSA [3]): 23 mm
MIC (P. aeruginosa [5]): 4030 µM (≈ 2000 µg/mL)

COc1cc(-c2cc(-c3cn(-c4ccccc4)nc3-c3ccccc3)[nH]c(=N)n2)cc(OC)c1OC [compound 5c, 6-(1,3-Diphenyl-1H-pyrazol-4-yl)-4-(3,4,5-trimethoxyphenyl)pyrimidine-2(1H)-imine]
MIC (MRSA [4]): 521 µM (≈ 250 µg/mL)
zone of inhibition at 10000 µg/mL (P. aeruginosa [1]): 24 mm
IC50 [2]: 4 ± 0.18 µM
area % of corneal opacity (infection intensity) (MRSA-induced keratitis; 5c dispersion, versus MRSA group): significantly (P < 0.0001) reduced infection in rats; also recorded: significant reduction in the area % of corneal opacity
inflammation score (MRSA-induced keratitis; H&E cornea, score 0-4, versus MRSA group): significant decrease in inflammation score
corneal inflammation, histological evaluation (H&E) (MRSA-induced keratitis; MRSA/5c dispersion group compared to MRSA group): mild to moderate inflammatory cell infiltration
zone of inhibition at 10000 µg/mL (MRSA [3]): 28 mm
MIC (P. aeruginosa [5]): 2080 µM (≈ 1000 µg/mL)

COc1cc(C2=NNC(c3cn(-c4ccccc4)nc3-c3ccccc3)C2)cc(OC)c1OC (stereo not drawn) [compound 6a, 1′,3′-Diphenyl-5-(3,4,5-trimethoxyphenyl)-3,4-dihydro-1′H,2H-3,4′-bipyrazole]
zone of inhibition at 10000 µg/mL (P. aeruginosa [1]): 6 mm
IC50 [2]: 5.56 ± 0.27 µM
zone of inhibition at 10000 µg/mL (MRSA [3]): 15 mm

COc1cc(C2=NN(c3ccccc3)C(c3cn(-c4ccccc4)nc3-c3ccccc3)C2)cc(OC)c1OC (stereo not drawn) [compound 6b, 1′,2,3′-Triphenyl-5-(3,4,5-trimethoxyphenyl)-3,4-dihydro-1′H,2H-3,4′-bipyrazole]
IZ (inhibition zone) (P. aeruginosa [1]): no detectable activity
zone of inhibition at 10000 µg/mL (P. aeruginosa [1]): 0 mm
IC50 [2]: 6.45 ± 0.31 µM
zone of inhibition at 10000 µg/mL (MRSA [3]): 6 mm

COc1cc(C2=NN(C(C)=O)C(c3cn(-c4ccccc4)nc3-c3ccccc3)C2)cc(OC)c1OC (stereo not drawn) [compound 7, 1-(1′,3′-Diphenyl-5-(3,4,5-trimethoxyphenyl)-3,4-dihydro-1′H,2H-[3,4′-bipyrazol]-2-yl)ethan-1-one]
IZ (inhibition zone) (P. aeruginosa [1]): no detectable activity
zone of inhibition at 10000 µg/mL (P. aeruginosa [1]): 0 mm
IC50 [2]: 6.7 ± 0.31 µM
zone of inhibition at 10000 µg/mL (MRSA [3]): 11 mm

C[C@H]1COc2c(N3CCN(C)CC3)c(F)cc3c(=O)c(C(=O)O)cn1c23 [levofloxacin, reference compound]
MIC (MRSA [4]): 346 µM (≈ 125 µg/mL)
zone of inhibition at 10000 µg/mL (P. aeruginosa [1]): 27 mm
zone of inhibition at 10000 µg/mL (MRSA [3]): 31 mm
MIC (P. aeruginosa [5]): 1380 µM (≈ 500 µg/mL)
